Values quoted from earlier work in patent EP2610673B1, “Method for manufacturing lithographic printing plates” (FUJIFILM Corporation, priority 2011, dated 2013).

Row | Compound | solubility in 20°C water [g/100 mL]
1 | CCCCOCCOCCOC(C)=O [diethylene glycol monobutyl ether acetate] | 6.5
2 | CCCCOCC(C)O (stereo not shown) [propylene glycol mono-n-butyl ether] | 4.4
3 | OCc1ccccc1 [benzyl alcohol] | 4.0
4 | CC(C)CC(C)O (stereo not shown) [4-methyl-2-pentanol] | 2.0
5 | CC(=O)OC(C)C [isopropyl acetate] | 4.3
6 | CCC(=O)CC [diethyl ketone] | 1.7
7 | CCC(O)CC [Example 3-pentanol, 3-pentanol] | 5.2
8 | CCC(C)CO (stereo not shown) [2-methyl-1-butanol] | 3.0
9 | CCCC(C)=O [Example 2-pentanone, 2-pentanone] | 4.0
10 | CCCC(C)O (stereo not shown) [Example 2-pentanol, 2-pentanol] | 4.5
11 | CC(C)C(C)O (stereo not shown) [3-methyl-2-butanol] | 5.6
12 | OCCOc1ccccc1 [ethylene glycol monophenyl ether] | 2.7
13 | CC(C)CCO [3-methyl-1-butanol] | 2.7
14 | CCCCCO [Example 1-pentanol, 1-pentanol] | 2.7
15 | CCCOC(C)=O [propyl acetate] | 1.6
16 | CC(C)(C)CO [neopentyl alcohol] | 3.5
